Experiments:
[1] = tested on: caspase-1; experiment: FAM-FLICA caspase-1 activation assay in human Treg cells; assay type: cell-based
Procedure: Purified primary human CD4+ T cells were used for siRNA knockdown of RUNX1, RPTOR, IL37, CREB1, CHK1, NLRP2, NLRP3, NLRP4, ASC, and NLRC4, and CD4+CD25+CD127^dim T cells for siRNA knockdown of FOXP3 and IL37. Cells were purified from healthy donor PBMCs as described above and then placed in culture in complete RPMI 1640 for at least 2 h prior to siRNA transfection via nucleofection using the Amaxa P3 Primary Cell 4D-Nucleofector X Kit L (Lonza) following the manufacturer's instructions. […] Knockdowns were confirmed 24 hours after nucleofection by qRT-PCR or 48 hours later by western blot, and the relative density of the protein bands was determined using FIJI. […]
Purified lymphocytes from either humans or mice were washed with FACS buffer (5% BSA (Sigma-Aldrich) and 1×PBS), and then prepared for surface or intracellular staining, as described (Osborne and Wetzel, 2012). For surface staining, 1 μg or the manufacturer-recommended amounts of fluorescently conjugated antibody specific to the surface marker to be visualized was added to 1×10^6 cells resuspended in 100 μl of FACS buffer for 30 min at 4° C., then washed 2× with FACS buffer prior to being either analyzed or further processed. […] For measuring proliferation, cells were stained with 5-μM CFSE (Molecular Probes, Eugene, OR) prior to cell culture and analyzed using flow cytometry. […]

[2] = tested on: PAK1/2/3; experiment: PAK1/2/3 inhibition in unstimulated human Treg cells; assay type: cell-based; conditions: 1 μM
Procedure: Purified lymphocytes from either humans or mice were washed with FACS buffer (5% BSA (Sigma-Aldrich) and 1×PBS), and then prepared for surface or intracellular staining, as described (Osborne and Wetzel, 2012). For surface staining, 1 μg or the manufacturer-recommended amounts of fluorescently conjugated antibody specific to the surface marker to be visualized was added to 1×10^6 cells resuspended in 100 μl of FACS buffer for 30 min at 4° C., then washed 2× with FACS buffer prior to being either analyzed or further processed. For intracellular cytokine staining (ICS), the FOXP3 Cytoperm/Cytofix staining kit (BD Pharmingen, San Diego, CA) was used after cells were stimulated for 24 h on 1 μg/ml anti-CD3-coated plates with soluble 1 μg/ml anti-CD28 antibody or anti-CD3/CD28 conjugated Dynabeads™ (Gibco, Thermo Fisher). For measuring proliferation, cells were stained with 5-μM CFSE (Molecular Probes, Eugene, OR) prior to cell culture and analyzed using flow cytometry. Flow-based measurement of caspase-1 activation was done using the FAM-FLICA® Caspase-1 Assay kit #98 following the manufacturer's instructions (ImmunoChemistry Tech, Bloomington, MN). For flow cytometry experiments using the caspase-1 inhibitor Ac-YVAD-CMK, cells were cultured with 50 μM Ac-YVAD-CMK for 2 h prior to stimulation, 24 h (mouse), and 48 h (human), with anti-CD3/CD28 conjugated Dynabeads™ and then prepared for flow cytometry analyses. For experiments using the PAK1/2/3 inhibitor FRAX597, cells were cultured with 1 μM FRAX597 for either 24 h (flow and qRT-PCR) or 48 h (immunoblotting) and then prepared for analysis. For flow cytometry or qRT-PCR experiments using IL-6 treatment, human and mouse cells were cultured with 20 ng/ml IL-6 (Peprotech) and anti-CD3/CD28 conjugated Dynabeads™ and then prepared for analyses. […] All acquisitions were performed on a Galios® or Galios® 561 cytometer equipped with Kaluza software (Beckman-Coulter, Indianapolis, IN), and all data were analyzed with FlowJo_V10 software (Tree Star, Ashland, OR).

[3] = target: p-SMAD3 S208 (SMAD3 phosphorylated at Ser208), human, endogenous in human Treg cells (human) (UniProt P84022); experiment: flow cytometry read-out in human Treg cells with or without 50 uM Ac-YVAD-CMK (FIG. 15D), presumably flow-based PLA
Chain of UniProt P84022 (P84022 2-425 limits assumed): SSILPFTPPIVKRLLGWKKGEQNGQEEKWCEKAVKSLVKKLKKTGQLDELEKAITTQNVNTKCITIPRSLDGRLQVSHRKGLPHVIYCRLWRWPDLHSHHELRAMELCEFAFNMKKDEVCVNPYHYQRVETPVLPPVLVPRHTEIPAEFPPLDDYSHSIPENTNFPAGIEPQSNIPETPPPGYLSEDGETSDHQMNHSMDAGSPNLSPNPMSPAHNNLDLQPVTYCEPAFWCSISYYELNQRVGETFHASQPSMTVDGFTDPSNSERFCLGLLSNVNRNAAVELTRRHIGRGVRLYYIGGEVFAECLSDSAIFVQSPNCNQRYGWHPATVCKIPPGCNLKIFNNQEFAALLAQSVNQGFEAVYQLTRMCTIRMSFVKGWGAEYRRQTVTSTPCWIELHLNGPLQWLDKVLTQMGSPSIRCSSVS

CCn1c(=O)c(-c2ccc(-c3cncs3)cc2Cl)cc2cnc(Nc3ccc(N4CCN(C)CC4)cc3)nc21 [FRAX 597]
reduction in caspase-1 activation ([1]; human Treg cells, 1 μM, 24 hrs): 44%
IL-37 localization ([2]; 24 hrs): shift in IL-37 localization from the nucleus to the cytoplasm
p-NLRC4 (S533), fold decrease ([2]; 24 hrs): 1.9 fold
FOXP3 gene and protein expression ([2]; 24 hrs (gene), 48 hrs (protein)): decrease

Interleukin-37 (IL-37), human, endogenous in human Treg cells (from UniProt Q9NZH6 1-218) (ligand)
decrease of the interaction after caspase-1 inhibitor Ac-YVAD-CMK, against untreated Treg cells [3]: 36.5%

ASC: siRNA against ASC, SEQ ID NO: 1-2 (chain 1 GCUCUUCAGUUUCACACCAUU; chain 2 UGGUGUGAAACUGAAGAGCUU; chemistry not given here)
caspase-1 activation compared to siRNA scramble control ([1]; primary human Treg cells, siRNA silencing): −20.5%

Source: US20250361485A1, “MODIFIED CD4+ T CELLS EXPRESSING IL-37 AND METHODS OF USE THEREOF” (The Regents of the University of Colorado, A Body Corporate, priority 2022, published 2025)
